Source: ChEMBL document CHEMBL4033723, “Succinamide derivatives of melampomagnolide B and their anti-cancer activities” (2017)

Legend:
Assay type in all cases: functional
A498 = experiment: Growth inhibition of human A498 cells after 48 hrs by sulforhodamine B assay; conditions: A498, 48 h
K562 = experiment: Growth inhibition of human K562 cells after 48 hrs by sulforhodamine B assay; conditions: K562, 48 h
SR = experiment: Growth inhibition of human SR cells after 48 hrs by sulforhodamine B assay
NCI-H322M = experiment: Growth inhibition of human NCI-H322M cells after 48 hrs by sulforhodamine B assay
[1] = Growth inhibition of human M9-ENL1 cells after 24 hrs by trypan blue assay; conditions: M9-ENL1, 24 h
SK-MEL-2 = experiment: Growth inhibition of human SK-MEL-2 cells after 48 hrs by sulforhodamine B assay; conditions: SK-MEL-2, 48 h
UACC-62 = experiment: Growth inhibition of human UACC62 cells after 48 hrs by sulforhodamine B assay; conditions: UACC-62, 48 h
HCC 2998 = experiment: Growth inhibition of human HCC2998 cells after 48 hrs by sulforhodamine B assay; conditions: HCC 2998, 48 h
TK-10 = experiment: Growth inhibition of human TK10 cells after 48 hrs by sulforhodamine B assay; conditions: TK-10, 48 h
PC-3 = experiment: Growth inhibition of human PC3 cells after 48 hrs by sulforhodamine B assay; conditions: PC-3, 48 h
HOP-92 = experiment: Growth inhibition of human HOP92 cells after 48 hrs by sulforhodamine B assay; conditions: HOP-92, 48 h
HL-60(TB) = experiment: Growth inhibition of human HL-60(TB) cells after 48 hrs by sulforhodamine B assay; conditions: HL-60, 48 h
CCRF-CEM = experiment: Growth inhibition of human CCRF-CEM cells after 48 hrs by sulforhodamine B assay
NCI-H522 = experiment: Growth inhibition of human NCI-H522 cells after 48 hrs by sulforhodamine B assay; conditions: NCI-H522, 48 h
A549 = experiment: Growth inhibition of human A549/ATCC cells after 48 hrs by sulforhodamine B assay; conditions: A549, 48 h
SNB-75 = experiment: Growth inhibition of human SNB75 cells after 48 hrs by sulforhodamine B assay; conditions: SNB-75, 48 h
NCI/ADR-RES = experiment: Growth inhibition of human NCI-ADR-RES cells after 48 hrs by sulforhodamine B assay
U-251 = experiment: Growth inhibition of human U251 cells after 48 hrs by sulforhodamine B assay; conditions: U-251, 48 h
SK-MEL-5 = experiment: Growth inhibition of human SK-MEL-5 cells after 48 hrs by sulforhodamine B assay; conditions: SK-MEL-5, 48 h
SF-539 = experiment: Growth inhibition of human SF539 cells after 48 hrs by sulforhodamine B assay; conditions: SF-539, 48 h
MDA-MB-435 = experiment: Growth inhibition of human MDA-MB-435 cells after 48 hrs by sulforhodamine B assay; conditions: MDA-MB-435, 48 h
SW-620 = experiment: Growth inhibition of human SW620 cells after 48 hrs by sulforhodamine B assay; conditions: SW-620, 48 h
COLO 205 = experiment: Growth inhibition of human COLO205 cells after 48 hrs by sulforhodamine B assay; conditions: COLO 205, 48 h
SF-268 = experiment: Growth inhibition of human SF268 cells after 48 hrs by sulforhodamine B assay; conditions: SF-268, 48 h
[2] = Induction of apoptosis in human M9-ENL1 cells assessed as cell death after 24 hrs by Annexin V/PI or 7-AAD staining based flow cytometry; conditions: M9-ENL1, 24 h, read-out: LC50 (the source's name)
SNB-19 = experiment: Growth inhibition of human SNB19 cells after 48 hrs by sulforhodamine B assay; conditions: SNB-19, 48 h
OVCAR-3 = experiment: Growth inhibition of human OVCAR3 cells after 48 hrs by sulforhodamine B assay; conditions: OVCAR-3, 48 h
RXF 393 = experiment: Growth inhibition of human RXF393 cells after 48 hrs by sulforhodamine B assay; conditions: RXF 393, 48 h
ACHN = experiment: Growth inhibition of human ACHN cells after 48 hrs by sulforhodamine B assay
BT-549 = experiment: Growth inhibition of human BT549 cells after 48 hrs by sulforhodamine B assay; conditions: BT-549, 48 h
MCF7 = experiment: Growth inhibition of human MCF7 cells after 48 hrs by sulforhodamine B assay; conditions: MCF7, 48 h
HT-29 = experiment: Growth inhibition of human HT-29 cells after 48 hrs by sulforhodamine B assay; conditions: HT-29, 48 h
SK-OV-3 = experiment: Growth inhibition of human SKOV3 cells after 48 hrs by sulforhodamine B assay; conditions: SK-OV-3, 48 h
HCT-15 = experiment: Growth inhibition of human HCT15 cells after 48 hrs by sulforhodamine B assay; conditions: HCT-15, 48 h
NCI-H226 = experiment: Growth inhibition of human NCI-H226 cells after 48 hrs by sulforhodamine B assay; conditions: NCI-H226, 48 h
NCI-H460 = experiment: Growth inhibition of human NCI-H460 cells after 48 hrs by sulforhodamine B assay; conditions: NCI-H460, 48 h
MDA-MB-468 = experiment: Growth inhibition of human MDA-MB-468 cells after 48 hrs by sulforhodamine B assay; conditions: MDA-MB-468, 48 h
MOLT-4 = experiment: Growth inhibition of human MOLT4 cells after 48 hrs by sulforhodamine B assay; conditions: MOLT-4, 48 h
RPMI-8226 = experiment: Growth inhibition of human RPMI8226 cells after 48 hrs by sulforhodamine B assay; conditions: RPMI-8226, 48 h
CAKI-1 = experiment: Growth inhibition of human Caki1 cells after 48 hrs by sulforhodamine B assay; conditions: CAKI-1, 48 h
786-0 = experiment: Growth inhibition of human 786-0 cells after 48 hrs by sulforhodamine B assay; conditions: 786-0, 48 h
NCI-H23 = experiment: Growth inhibition of human NCI-H23 cells after 48 hrs by sulforhodamine B assay; conditions: NCI-H23, 48 h
Hs-578T = experiment: Growth inhibition of human Hs 578T cells after 48 hrs by sulforhodamine B assay
OVCAR-8 = experiment: Growth inhibition of human OVCAR8 cells after 48 hrs by sulforhodamine B assay; conditions: OVCAR-8, 48 h
SK-MEL-28 = experiment: Growth inhibition of human SK-MEL-28 cells after 48 hrs by sulforhodamine B assay; conditions: SK-MEL-28, 48 h
HCT-116 = experiment: Growth inhibition of human HCT116 cells after 48 hrs by sulforhodamine B assay; conditions: HCT-116, 48 h
LOX IMVI = experiment: Growth inhibition of human LOXIMVI cells after 48 hrs by sulforhodamine B assay
M14 = experiment: Growth inhibition of human M14 cells after 48 hrs by sulforhodamine B assay; conditions: M14, 48 h
Malme-3M = experiment: Growth inhibition of human MALME-3M cells after 48 hrs by sulforhodamine B assay
UO-31 = experiment: Growth inhibition of human UO31 cells after 48 hrs by sulforhodamine B assay; conditions: UO-31, 48 h
MDA-MB-231 = experiment: Growth inhibition of human MDA-MB-231 cells after 48 hrs by sulforhodamine B assay; conditions: MDA-MB-231, 48 h
KM12 = experiment: Growth inhibition of human KM12 cells after 48 hrs by sulforhodamine B assay; conditions: KM12, 48 h
SN12C = experiment: Growth inhibition of human SN12C cells after 48 hrs by sulforhodamine B assay
SF-295 = experiment: Growth inhibition of human SF295 cells after 48 hrs by sulforhodamine B assay; conditions: SF-295, 48 h
DU-145 = experiment: Growth inhibition of human DU145 cells after 48 hrs by sulforhodamine B assay; conditions: DU-145, 48 h
OVCAR-4 = experiment: Growth inhibition of human OVCAR4 cells after 48 hrs by sulforhodamine B assay; conditions: OVCAR-4, 48 h
UACC-257 = experiment: Growth inhibition of human UACC257 cells after 48 hrs by sulforhodamine B assay; conditions: UACC-257, 48 h
OVCAR-5 = experiment: Growth inhibition of human OVCAR5 cells after 48 hrs by sulforhodamine B assay; conditions: OVCAR-5, 48 h
T47D = experiment: Growth inhibition of human T47D cells after 48 hrs by sulforhodamine B assay

Compound C=C1C(=O)O[C@H]2[C@H]1CC/C(COC(=O)CCC(=O)NCCCCCCCCNC(=O)CCC(=O)OC/C1=C/CC[C@@]3(C)O[C@H]3[C@H]3OC(=O)C(=C)[C@@H]3CC1)=C\CC[C@@]1(C)O[C@@H]21 has a GI50 (A498) of 6720 nM, a GI50 (K562) of 970 nM and a GI50 (SR) of 410 nM. For the same compound, the GI50 (NCI-H322M) was 16300 nM, the GI50 [1] was 1000 nM and the GI50 (SK-MEL-2) was 2250 nM. The GI50 (UACC-62) was 1970 nM, the GI50 (HCC 2998) was 4120 nM and the GI50 (TK-10) was 20800 nM. For the same compound, the GI50 (PC-3) was 3640 nM, the GI50 (HOP-92) was 1580 nM and the GI50 (HL-60(TB)) was 630 nM. It also gave a GI50 (CCRF-CEM) of 320 nM, a GI50 (NCI-H522) of 480 nM and a GI50 (A549) of 18500 nM. The GI50 (SNB-75) was 2020 nM, the GI50 (NCI/ADR-RES) was 33500 nM and the GI50 (U-251) was 3030 nM. For the same compound, the GI50 (SK-MEL-5) was 3130 nM, the GI50 (SF-539) was 2430 nM and the GI50 (MDA-MB-435) was 1800 nM. The GI50 (SW-620) was 1220 nM, the GI50 (COLO 205) was 1350 nM and the GI50 (SF-268) was 3340 nM. For the same compound, the CC50 [2] was 11000 nM, the GI50 (SNB-19) was 4150 nM and the GI50 (OVCAR-3) was 1500 nM. It also gave a GI50 (RXF 393) of 850 nM, a GI50 (ACHN) of 3130 nM and a GI50 (BT-549) of 1230 nM. It also gave a GI50 (MCF7) of 770 nM, a GI50 (HT-29) of 1640 nM and a GI50 (SK-OV-3) of 6450 nM. For the same compound, the GI50 (HCT-15) was 3600 nM, the GI50 (NCI-H226) was 2060 nM and the GI50 (NCI-H460) was 5000 nM. It also gave a GI50 (MDA-MB-468) of 1330 nM, a GI50 (MOLT-4) of 2110 nM and a GI50 (RPMI-8226) of 1670 nM. The GI50 (CAKI-1) was 12700 nM, the GI50 (786-0) was 1620 nM and the GI50 (NCI-H23) was 2990 nM. It also gave a GI50 (Hs-578T) of 3880 nM, a GI50 (OVCAR-8) of 2900 nM and a GI50 (SK-MEL-28) of 1650 nM. The GI50 (HCT-116) was 1540 nM, the GI50 (LOX IMVI) was 1370 nM and the GI50 (M14) was 1790 nM. For the same compound, the GI50 (Malme-3M) was 2040 nM, the GI50 (UO-31) was 10900 nM and the GI50 (MDA-MB-231) was 1970 nM. For the same compound, the GI50 (KM12) was 9460 nM, the GI50 (SN12C) was 3740 nM and the GI50 (SF-295) was 15100 nM. The GI50 (DU-145) was 1920 nM, the GI50 (OVCAR-4) was 1640 nM and the GI50 (UACC-257) was 1760 nM. The GI50 (OVCAR-5) was 1820 nM and the GI50 (T47D) was 1510 nM.
